In PubChem BioAssay AID179 (DTP/NCI, 2004):
Several values for one entry are separate records, joined by “and”; a condition that tells them apart may be missing. Equal values may be shown once. Activity calls are given as the source filed them.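 The calls were made as follows: active = compounds giving half or more protection of infected cells from virus-caused growth loss, again on retest; inactive = the rest.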 Where a SMILES comes first, the peptide text is derived from it. [ ]: non-standard residue; d: D form. The star is where a group is joined. Phe(4-NO2) = N[CH](Cc1ccc([N+](=O)[O-])cc1)C(=O)O; Boc = CC(C)(C)OC(=O)*

System: CEM cells HIV-1 protection, formazan growth assay
Test: NCI AIDS Antiviral Assay
Conditions: for IC50: measured here: growth of uninfected CEM cells
In short: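 CEM (human) cells, HIV-1 infected vs uninfected, 5-point dosing, formazan growth read-out. Retest threshold 50% protection.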

Compound	EC50	IC50	outcome
CCOC(=O)CCC(NC(=O)C(Cc1ccc([N+](=O)[O-])cc1)NC(=O)OC(C)(C)C)C(=O)NC(CCC(=O)OCC)C(=O)OCC (centres undefined) (Boc-[Phe(4-NO2)]-Glu(OEt)-Glu(OEt)-OEt; configuration not given here)	> 200 µM	9.77 µM	–
O=CNC(CSSCC(NC=O)C(=O)O)C(=O)O (centres undefined)	> 200 µM	> 200 µM	–
Cn1c2ccccc2c2nnc(N/N=C/c3cccnc3)nc21	> 200 µM	> 200 µM	–
O=c1cc(-c2ccccc2)oc2ccc(Oc3nnnn3-c3ccccc3)cc12	> 200 µM	> 200 µM	–
CCCCSCc1nc2ccccc2c(C)[n+]1[O-]	234 µM	437 µM	–
Cc1nc2ccc(S(=O)(=O)Nc3ccccc3Cl)cc2c(=O)n1NC(=O)CNc1ccccc1Cl	> 200 µM	170 µM	–
CN1CC(C)(C)NC(=O)[C@@](C)(OCc2ccccc2)CN(C)CC(C)(C)NC(=O)[C@](C)(OCc2ccccc2)C1	> 200 µM	120 µM	–
CCCCCC=C(c1cc(Br)cc(C(=O)O)c1OC)c1cc(Br)cc(C(=O)O)c1OC	> 170 µM	166 µM	–
COc1ccc([N+](=O)[O-])c2c(NCCCN(C)C)c3ccccc3nc12	> 0.2 µM	0.138 µM	–
COc1ccc(N=NC(=O)NC(Cc2ccccc2)C(=O)O)cc1 (centres undefined)	> 200 µM	20 µM	–
O=[N+]([O-])c1ccc2c([N+](=O)[O-])ccc3c2c1CC3	> 200 µM	21.9 µM	–
Cc1cc(=O)[nH]c2cc(N(C)C)ccc12	> 67.6 µM	> 67.6 µM	–
Nc1ncnc2c1ncn2C1CC(O)C(CO)(C(F)(F)F)O1 (centres undefined)	> 200 µM	61.7 µM	–
CN(C)CC1CCC/C(=C\c2ccccc2)C1=O (centres undefined)	> 200 µM	0.708 µM	–
CCCCNCCCC.[C-]#[O+].[C-]#[O+].[C-]#[O+].[C-]#[O+].[C-]#[O+].[Cr]	> 200 µM	56.2 µM	–
COc1cccc(/C=C(\C#N)C(=O)c2ccccc2)c1	> 97.7 µM	> 97.7 µM	–
CC1(C)CC(/C=C2/OC(=O)c3ccccc32)=C(C(N)=O)C(=O)O1	> 83.2 µM	> 83.2 µM	–
CN1C(=O)c2ccccc2OC12C=Cc1ccc(O)cc1O2 (centres undefined)	> 132 µM	45.7 µM	–
COC(=N)CCSSCCC(=N)OC	> 200 µM	> 200 µM	–
COC(CCC(C)C1OC23CC(OC(=O)CC(C(C)O)OC(=O)CC(O)(O2)C(C)CC3(C)C)C1C)c1cccc(O)c1 (centres undefined)	–	–	active
Cc1cc(C)c(-n2c(-c3ccccc3)cs/c2=N\N=C2C=C(C(C)(C)C)C(=O)C(C(C)(C)C)=C2)c(C)c1	> 14.1 µM	> 14.1 µM	–
COc1ccc2c(c1)OCC1=C2Oc2ccccc2C1	> 200 µM	26.9 µM	–

Compound	EC50	IC50	outcome
C=CCC1C(O[Si](C)(C)C(C)(C)C)C(CO[Si](C)(C)C(C)(C)C)OC1n1ccc(=O)[nH]c1=O (centres undefined)	> 200 µM	2.75 µM	–
Cc1ccc(S(=O)(=O)OC2COCOC2C2OCOC3COCOC32)cc1 (centres undefined)	> 200 µM	> 200 µM	–
CCN(CC)CCOC(=O)C(Cc1cccc2ccccc12)CC1CCCO1 (centres undefined)	> 200 µM	> 100 µM	–
Clc1cc(Cl)c2n[se]nc2c1	–	–	inactive
COc1cc2oc(-c3ccc(O)cc3)cc(=O)c2c(OC)c1OC	97.7 µM	> 200 µM	–
O=c1c2cccnc2nc2ccc3c[nH][nH]c3c12	> 200 µM	87.1 µM	–
O=[N+]([O-])C=C(c1ccc(Cl)cc1)c1ccc(Cl)cc1	–	–	inactive
COC/N=C(\NC#N)NCOC	> 525 µM	> 525 µM	–
CN1C(=O)Cn2c(nn(Cc3ccccc3)c(=O)c2=O)-c2cc(Cl)ccc21	42.7 µM	67.6 µM	–
Cc1c2ccnc(C#N)c2c(C)c2c1[nH]c1ccccc12	–	–	inactive
O=C1NC2C3CC(OCc4ccccc4)(OCc4ccccc4)C2OC3O1 (centres undefined)	> 97.7 µM	> 97.7 µM	–
CN1c2ccc(Cl)cc2C2(C(=O)NN)C(C(=O)NN)N(C3CCCCC3)C(=O)C12N (centres undefined)	> 87.1 µM	> 87.1 µM	–
CO[C@H]1C[C@](C)(O)Cc2cc3c(c(O)c21)C(=O)c1c(O)cc2c(c1C3=O)O[C@@H]1O[C@@]2(C)[C@H](O)[C@@H](N(C)C)[C@@H]1O	> 6.92 µM	0.0468 µM	–
Cc1nc(N)c(N2CCN(C#N)CC2)c(=O)[nH]1	> 200 µM	> 200 µM	–
COC(=O)[C@@H]1CO[C@H](C(C)(C)C)N1C(=O)N1C=CC(=O)C[C@H]1C	> 200 µM	> 200 µM	–
CSc1nc(NC2OCC(O)C(O)C2O)c(N)c(=O)n1C (centres undefined)	–	–	inactive
CCOC(=O)C1=C(C)N(NC(=O)OC)C2(N)N(NC(=O)OC)C(C)=C(C(=O)OCC)C12C#N (centres undefined)	> 537 µM	> 537 µM	–
CC(=O)[O-].CCCCCCC/C=N/[N-]C(=O)c1ccncc1.[Co+2].[OH3+].[OH3+].[OH3+].[OH3+]	> 200 µM	115 µM	–
CCNc1cc2oc(=O)cc(C)c2cc1C	> 33.1 µM	> 33.1 µM	–
N.N.N.N.N.NC(=O)[O-].[Co+3].[I-]	–	–	inactive
C=C1CC(COc2cc(=O)oc3ccccc23)(c2ccccc2)OC1=O (centres undefined)	> 200 µM	0.38 µM	–
Cc1ccc(NC(=O)C(=O)C2C(=O)N(c3ccccc3)N=C2N)cc1C (centres undefined)	–	–	inactive

Compound	EC50	IC50	outcome
O=C1OC(C(=O)O)c2ccc3c(c21)OCO3 (centres undefined)	> 398 µM	> 398 µM	–
N#C/C(=C\c1ccccc1)C(NO)Nc1ccccc1 (centres undefined)	> 135 µM	64.6 µM	–
CC1(C)C=CC2=C(O1)C(=O)c1ccccc1C2=O	> 200 µM	32.4 µM and 26.9 µM	–
CC1=NC(=Cc2ccc([N+](=O)[O-])cc2)C(=O)N1n1c(-c2ccccc2)nc2ccccc2c1=O	> 200 µM	34.7 µM	–
Cc1cc(N(CCC#N)CCC#N)ccc1/C=C(\NC(=O)/C=C/c1ccccc1)NC(=O)Nc1ccccc1C	> 9.77 µM	> 9.77 µM	–
CN(CCO)c1nc(=O)c2c(n1C1OC(CO)C(O)C(O)C1O)CCCC2 (centres undefined)	> 339 µM	> 339 µM	–
Oc1cccc(/C=C/c2cnnc3ccccc23)c1	> 200 µM	37.2 µM	–
NC(=O)c1nnsc1-c1ccco1	> 200 µM	> 200 µM	–
Cc1cc2ccccc2n1S(=O)(=O)c1ccccc1	> 95.5 µM	> 95.5 µM	–
Cc1ccccc1[P+](Cc1ccccc1)(c1ccccc1C)c1ccccc1C	> 20 µM	1.07 µM	–
NC(=O)C(c1ccccc1)N1CCCC1 (centres undefined)	> 200 µM	> 200 µM	–
O=C(O)CC(NC(=O)/C(=C/c1ccccc1)NC(=O)c1ccccc1)C(=O)O (centres undefined)	> 200 µM	> 200 µM	–
Cc1ccc(S(=O)(=O)Sc2nnnn2C)cc1	> 251 µM	53.7 µM	–
CCOC(=O)c1nc2ccccc2n(CC)c1=O	> 200 µM	79.4 µM	–
Cc1ccc2oc(=O)c(C(=O)Nc3nc(C45CC6CC(CC(C6)C4)C5)cs3)cc2c1	> 100 µM	> 100 µM	–
CN1CCC2(CC1)C(=O)N(NC(N)=O)C(=O)C2c1ccccc1 (centres undefined)	> 200 µM	> 200 µM	–
COc1ccc(OCC(=O)O)c2c1CCCC2=O	–	–	inactive
NCCCCNC(c1ccccc1)C(O)c1ccccc1 (centres undefined)	–	–	inactive
CC(=O)Oc1ccc(CCC(=O)O[C@H](C(=O)O)[C@H](OC(=O)CCc2ccc(OC(C)=O)c(OC(C)=O)c2)C(=O)O)cc1OC(C)=O	> 53.7 µM	30.2 µM	–
C[C@@H]1C(O)CC[C@H](C)C12CC=CC2=O (some centres undefined)	> 200 µM	> 200 µM	–
